These results are taken from ChEMBL document CHEMBL1177644, “16-bromoepiandrosterone, an activator of the mammalian immune system, inhibits glucose 6-phosphate dehydrogenase from Trypanosoma cruzi and is toxic to these parasites grown in culture” (Bioorg Med Chem, 2010).

For test [1], the system named is Trypanosoma cruzi. Put plainly: Antitrypanosomal activity against Trypanosoma cruzi Y epimastigotes assessed as viability after 72 hrs by MTS assay. The class given is functional. The settings on record: read-out: LD50 (the source's name). Background: Tetrazolium assays rely on reduction of a dye to a coloured formazan, in cell work by metabolically active cells.

The nature of test [2]: Inhibition of His-tagged Trypanosoma cruzi G6PDH expressed in Escherichia coli BL21 by spectrophotometry.

Each structure is given as a SMILES string.

As usually defined, the IC50 is the concentration that inhibits the measured activity by half. The low end stands for inhibition by little substance, the high end for a need for much substance. For `C[C@]12CC[C@H](O)CC1=CC[C@@H]1[C@@H]2CC[C@]2(C)C(=O)[C@H](Br)C[C@@H]12`, in test [1], the LC50 was 20.6 µM. The molecule further registered a 50% inhibitory concentration (IC50) in test [2] of 0.216 µM.

On to `C[C@]12CC[C@H](O)C[C@@H]1CC[C@@H]1[C@@H]2CC[C@]2(C)C(=O)[C@H](Br)C[C@@H]12` [16.ALPHA.-BROMOEPIANDROSTERONE], for which, in test [1], the LC50 stood at 12.4 µM. In test [2], this molecule returned a 50% inhibitory concentration (IC50) of 0.086 µM.

With `C[C@]12CC[C@H](O)C[C@@H]1CC[C@@H]1[C@@H]2CC[C@]2(C)C(=O)CC[C@@H]12` [EPIANDROSTERONE], the LC50 in test [1] worked out at 36.5 µM. For the same molecule, the IC50 in test [2] was 5.6 µM.

`C[C@]12CC[C@H](O)CC1=CC[C@@H]1[C@@H]2CC[C@]2(C)C(=O)CC[C@@H]12` [PRASTERONE]: the IC50 in test [2] was 25 µM.
